US7906486B2, “Method of treating or preventing tissue deterioration, injury or damage due to disease of mucosa” (SciClone Pharmaceuticals, Inc., priority 2007, dated 2011)

Key:
thymocyte and lymphocyte = settings: in vitro; cited from earlier work
[1] = system: 5-FU-immune-suppressed animals; settings: in vivo; cited from earlier work
[2] = system: oral mucositis induced by fractionated radiation (eight doses of 7.5 Gy, left buccal cheek pouch); experiment: Oral mucositis induced by fractionated radiation in hamsters, mucositis scoring (Example 3, SCI-03); type: in vivo, Syrian Golden Hamsters; settings: for % Days >=3 / Days <3 / Days >=3 / Chi Sq v control: 100 ug/kg, qd; for Days >=3: animal days with mucositis score of three or more; for Chi Sq v control: days with score >=3
Text: The fractionated radiation model in hamsters, developed by the Principal Investigator, has proven to be an accurate, efficient and cost-effective technique to provide a preliminary evaluation of anti-mucositis compounds. In this model, hamsters receive 8 doses of 7.5 Gy to the left cheek pouch on days 0, 1, 2, 3, […], rather than the single dose of 40 Gy on day 0 that is used in acute radiation studies. The rationale for using this scheduling for the radiation is that it more closely resembles the clinical courses of radiotherapy given to cancer patients. The course of mucositis in this model is well defined and results in peak mucositis scores approximately 14-16 days following radiation. Mortality (generally from the side effects of anesthesia) in the fractionated radiation model is slightly higher than that seen in the acute radiation model and group sizes are increased (to 10 per group) to allow for this.
(§1) Forty (40) male Syrian Golden Hamsters were given eight doses of radiation of 7.5 Gy each directed to their left buccal cheek pouch on days 0, 1, 2, 3, 6, 7, 8 and 9. This was accomplished by anesthetizing the animals and everting the left buccal pouch, while protecting the rest of the animal's bodies with a lead shield. Test materials were given by sub-cutaneous injection once daily as detailed in Table 9. Mucositis was evaluated clinically starting on day 7, and continuing on alternate days until day 35. Test articles were given as outlined Table 9, Groups 1 and 2 were dosed from Day −1 to Day 29, Group 3 was dosed on the days of radiation only, Group 4 was dosed on the days between Day −15 and Day 29 on which no radiation is given (Day −1, Day 4, Day 5 and Day 10 to Day 29).
The effect on mucositis of each drug treatment compared to placebo was assessed according to the following parameters:
On each evaluation day, the number of animals with a blinded mucositis score of ≧3 in each drug treatment group was compared to the control group. Differences were compared on a cumulative basis and statistical significance was determined by chi-square analysis. Efficacy, in this analysis, is defined by a significant reduction in the number of days that a group of animals had ulcerations (scores ≧3) when compared to the control group.
For each evaluation day the scores of the control group were compared to those of the treated groups using non-parametric rank sum analysis. Treatment success was considered as a statistically significant lowering of scores in the treated group on 2 or more days from day 6 to day 28.
as §1, with “daily at 8:00 am” for “daily”, “9. […]” for “9. Mucositis was evaluated clinically starting on day 7, and continuing on alternate days until day 35.”, “2 was” for “2 were”, “radiation only (days 0-3 and days 6-10),” for “radiation only,”, “Day −1” for “Day −15”, “Day 4 to” for “Day 4,”
Radiation was generated with a Philips 160 kVp (kilovolt potential) (18.75-ma) X-ray source at a focal distance of 30 cm, with a 3.0 mm hardened Al filtration system. Irradiation was targeted to the left buccal pouch mucosa at a rate of 3.32 Gy/minute. […] Using this calibration, the energy received by each animal at each radiation dose was approximately 64.5 nC (nanoCoulombs) at each time point. Prior to irradiation, animals were anesthetized with an intraperitoneal injection of ketamine (160 mg/kg) and xylazine (8 mg/kg). The left buccal pouch was everted, fixed and isolated using a lead shield.
The mucositis score, weight change and survival were measured throughout the study as described above. […]

[3] = 100 ug/kg from day -1 to day 29
[4] = 100 ug/kg on the days of radiation (0-3 and 6-9)

SMILES: N[C@H](CCC(=O)N[C@@H](Cc1c[nH]c2ccccc12)C(=O)O)C(=O)O [SCV-07, γ-D-glutamyl-L-tryptophan]
- Con-A-induced thymocyte and lymphocyte proliferation (thymocyte and lymphocyte): increases
- immunostimulatory effect on 5-FU-immune-suppressed animals [1]: strong immunostimulatory effect
- day of peak mean mucositis score [2, 3]: 19
- peak mean mucositis score [2, 3]: 3.3
- peak mean mucositis score ([2]; 100 ug/kg on days 1, 4, 5 and 10 through 29): 2.9
- day of peak mean mucositis score [2, 4]: 17
- peak mean mucositis score [2, 4]: 3.0
- % Days >=3 ([2]; sc Days 0 to 3 and 6 to 9): 24%
- Days <3 ([2]; sc Days 0 to 3 and 6 to 9): 228
- % Days >=3 ([2]; sc Days -1, 4, 5 10 to 29): 30.7%
- Days <3 ([2]; sc Days -1, 4, 5 10 to 29): 208
- % Days >=3 ([2]; sc Days -1 to 29): 32.7%
- Days <3 ([2]; sc Days -1 to 29): 202
- Days >=3 ([2]; sc Days 0 to 3 and 6 to 9): 72
- Days >=3 ([2]; sc Days -1, 4, 5 10 to 29): 92
- Days >=3 ([2]; sc Days -1 to 29): 98
- Chi Sq v control ([2]; sc Days 0 to 3 and 6 to 9): 0.3160
- Chi Sq v control ([2]; sc Days -1, 4, 5 10 to 29): 0.2300
- Chi Sq v control ([2]; sc Days -1 to 29): 0.575
